Assay results from patent US20240165199A1, “PROX1 PREVENTS MYXOMATOUS VALVE DISEASE BY INHIBITING PDGF-B SIGNALING” (Oklahoma Medical Research Foundation, priority 2022, published 2024).
“Also recorded” adds a separate entry of the source. Read-outs that look alike come from different tables or passages of the source.

Legend:
Prox1^ΔVEC mice = conditions: 50 mg/kg body weight/day oral; for aortic peak velocity: 24 weeks from 1 month of age, echocardiography, vs untreated Prox1^ΔVEC mice; for aortic peak velocity / platelet aggregate-like (thrombus-like) structures in aortic valves / abnormal elastin expression/distribution in aortic valves / aortic valve thickness (progressive thickening) / versican expression in aortic valves: 50 mg/kg/day; for platelet aggregate-like (thrombus-like) structures in aortic valves / abnormal elastin expression/distribution in aortic valves / aortic valve thickness (progressive thickening) / versican expression in aortic valves: 24 weeks; for platelet aggregate-like (thrombus-like) structures in aortic valves: Movat Pentachrome-stained sections; for abnormal elastin expression/distribution in aortic valves: downstream side of aortic valves; for aortic valve thickness (progressive thickening): histology, area of valve leaflets; for versican expression in aortic valves: immunohistochemistry; for valve defects / progression of valve disease: mice lacking Prox1 (Prox1^ΔVEC)
PDGFRα = PDGFRα (Homo sapiens, UniProt P16234); conditions: cited from earlier work
Sequence of PDGFRα (P16234 24-1089, species assumed): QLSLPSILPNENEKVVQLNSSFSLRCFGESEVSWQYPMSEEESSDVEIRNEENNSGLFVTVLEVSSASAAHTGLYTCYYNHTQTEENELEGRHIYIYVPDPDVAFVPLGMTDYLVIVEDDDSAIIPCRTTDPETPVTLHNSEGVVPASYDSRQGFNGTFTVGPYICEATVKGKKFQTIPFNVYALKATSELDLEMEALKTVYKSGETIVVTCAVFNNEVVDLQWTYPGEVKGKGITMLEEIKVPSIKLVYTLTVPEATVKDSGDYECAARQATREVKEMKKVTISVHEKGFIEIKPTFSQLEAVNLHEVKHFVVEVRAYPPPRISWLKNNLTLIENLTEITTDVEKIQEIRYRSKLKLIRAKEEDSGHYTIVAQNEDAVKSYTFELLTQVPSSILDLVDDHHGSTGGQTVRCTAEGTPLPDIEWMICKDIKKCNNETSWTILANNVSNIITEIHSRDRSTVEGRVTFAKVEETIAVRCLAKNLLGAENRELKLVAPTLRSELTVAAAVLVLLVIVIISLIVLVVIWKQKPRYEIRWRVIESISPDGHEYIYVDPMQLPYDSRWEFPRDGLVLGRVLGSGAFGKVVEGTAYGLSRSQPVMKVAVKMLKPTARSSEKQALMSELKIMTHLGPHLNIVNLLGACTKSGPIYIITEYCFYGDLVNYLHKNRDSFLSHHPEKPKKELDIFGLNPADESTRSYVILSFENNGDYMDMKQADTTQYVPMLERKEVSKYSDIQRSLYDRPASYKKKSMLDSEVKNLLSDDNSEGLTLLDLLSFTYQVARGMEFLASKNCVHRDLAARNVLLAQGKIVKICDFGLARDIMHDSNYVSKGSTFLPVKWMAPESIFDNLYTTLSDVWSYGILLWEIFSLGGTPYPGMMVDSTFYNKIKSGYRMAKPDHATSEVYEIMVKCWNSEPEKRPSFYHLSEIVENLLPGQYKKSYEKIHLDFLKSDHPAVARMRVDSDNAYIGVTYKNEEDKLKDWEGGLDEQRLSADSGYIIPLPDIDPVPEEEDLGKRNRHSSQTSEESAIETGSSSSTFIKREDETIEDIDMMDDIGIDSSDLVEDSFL

PDGFRβ = PDGFRβ (Homo sapiens, UniProt P09619); conditions: not specific for PDGFRβ; cited from earlier work
Sequence of PDGFRβ (P09619 33-1106): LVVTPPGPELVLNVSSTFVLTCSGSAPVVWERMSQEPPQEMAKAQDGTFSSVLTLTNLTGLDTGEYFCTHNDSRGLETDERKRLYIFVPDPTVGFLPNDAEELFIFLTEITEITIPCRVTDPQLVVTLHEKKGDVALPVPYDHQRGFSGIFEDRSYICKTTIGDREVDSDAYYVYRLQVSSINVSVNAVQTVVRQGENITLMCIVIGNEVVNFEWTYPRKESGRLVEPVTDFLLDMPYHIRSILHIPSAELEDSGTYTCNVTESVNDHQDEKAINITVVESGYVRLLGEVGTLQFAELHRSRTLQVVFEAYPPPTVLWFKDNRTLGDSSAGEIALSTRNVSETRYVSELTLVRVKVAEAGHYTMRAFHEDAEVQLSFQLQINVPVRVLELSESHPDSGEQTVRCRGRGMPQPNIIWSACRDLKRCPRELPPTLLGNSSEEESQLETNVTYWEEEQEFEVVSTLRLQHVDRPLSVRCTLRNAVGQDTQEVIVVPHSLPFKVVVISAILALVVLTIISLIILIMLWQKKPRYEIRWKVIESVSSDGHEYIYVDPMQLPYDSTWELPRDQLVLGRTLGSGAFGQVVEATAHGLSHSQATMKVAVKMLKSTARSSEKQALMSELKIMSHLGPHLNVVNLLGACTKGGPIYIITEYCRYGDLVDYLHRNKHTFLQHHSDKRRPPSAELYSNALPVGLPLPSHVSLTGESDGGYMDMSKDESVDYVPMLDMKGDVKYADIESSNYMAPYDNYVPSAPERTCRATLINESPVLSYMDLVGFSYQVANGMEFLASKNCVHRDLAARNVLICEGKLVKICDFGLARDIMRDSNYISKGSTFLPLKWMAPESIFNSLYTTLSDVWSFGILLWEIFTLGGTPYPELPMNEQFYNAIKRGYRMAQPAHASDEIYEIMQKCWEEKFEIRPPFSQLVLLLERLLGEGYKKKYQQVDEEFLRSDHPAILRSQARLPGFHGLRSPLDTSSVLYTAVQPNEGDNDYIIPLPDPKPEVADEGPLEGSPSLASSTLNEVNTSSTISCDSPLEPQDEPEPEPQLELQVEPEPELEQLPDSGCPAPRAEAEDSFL

[1] = test system: patients with PDGFRβ hyperactivating mutations; conditions: cited from earlier work
c-Kit = c-Kit (Homo sapiens, UniProt P10721); conditions: cited from earlier work
Sequence of c-Kit (P10721 26-976): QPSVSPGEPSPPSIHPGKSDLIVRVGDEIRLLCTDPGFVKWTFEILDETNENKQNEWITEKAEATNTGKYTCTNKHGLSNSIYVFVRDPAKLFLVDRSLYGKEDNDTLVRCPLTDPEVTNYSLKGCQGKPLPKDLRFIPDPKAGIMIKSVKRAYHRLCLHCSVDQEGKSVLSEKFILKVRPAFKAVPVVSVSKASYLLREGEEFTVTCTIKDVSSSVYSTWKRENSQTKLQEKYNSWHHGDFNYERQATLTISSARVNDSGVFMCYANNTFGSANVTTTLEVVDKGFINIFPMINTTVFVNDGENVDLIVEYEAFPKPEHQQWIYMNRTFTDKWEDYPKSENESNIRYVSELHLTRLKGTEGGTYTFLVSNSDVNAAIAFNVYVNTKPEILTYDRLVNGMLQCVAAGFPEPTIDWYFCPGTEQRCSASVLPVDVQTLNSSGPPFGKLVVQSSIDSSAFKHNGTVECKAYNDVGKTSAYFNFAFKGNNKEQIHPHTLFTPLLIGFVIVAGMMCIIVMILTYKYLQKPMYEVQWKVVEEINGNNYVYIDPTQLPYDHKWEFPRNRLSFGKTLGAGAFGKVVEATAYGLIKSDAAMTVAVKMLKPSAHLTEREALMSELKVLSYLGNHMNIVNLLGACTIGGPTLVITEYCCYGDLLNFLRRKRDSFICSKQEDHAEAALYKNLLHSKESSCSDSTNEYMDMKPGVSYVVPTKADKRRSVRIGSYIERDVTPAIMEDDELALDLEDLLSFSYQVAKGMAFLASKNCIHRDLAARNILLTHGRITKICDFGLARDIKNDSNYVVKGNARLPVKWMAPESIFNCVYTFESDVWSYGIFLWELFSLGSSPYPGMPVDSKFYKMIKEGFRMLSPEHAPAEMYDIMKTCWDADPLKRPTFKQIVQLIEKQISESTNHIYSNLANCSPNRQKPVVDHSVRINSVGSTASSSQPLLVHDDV

Cc1ccc(NC(=O)c2ccc(CN3CCN(C)CC3)cc2)cc1Nc1nccc(-c2cccnc2)n1 [imatinib]
elastin expression in mitral valves (Prox1^ΔVEC mice; Prox1^ΔVEC mice, 6 months): significantly normalized
expression of SOX9 in the aortic and mitral valves (Prox1^ΔVEC mice; Prox1^ΔVEC mice, 6 months): normalized
thickness of the mitral valves (Prox1^ΔVEC mice; Prox1^ΔVEC mice, 6 months): did not reduce
versican expression in mitral valves (Prox1^ΔVEC mice; Prox1^ΔVEC mice, 6 months): significantly normalized
aortic peak velocity (Prox1^ΔVEC mice; Prox1^ΔVEC mice): preventing an increase in peak velocity
aortic peak velocity (Prox1^ΔVEC mice; Prox1^ΔVEC mice, listed as Imb): lowered aortic peak velocity
platelet aggregate-like (thrombus-like) structures in aortic valves (Prox1^ΔVEC mice; Prox1^ΔVEC mice): reduced by imatinib treatment
platelet aggregate-like (thrombus-like) structures in aortic valves (Prox1^ΔVEC mice; Prox1^ΔVEC mice, listed as Imb): reduced
abnormal elastin expression/distribution in aortic valves (Prox1^ΔVEC mice; Prox1^ΔVEC mice): significantly reduced
abnormal elastin expression/distribution in aortic valves (Prox1^ΔVEC mice; Prox1^ΔVEC mice, listed as Imb): rescued
aortic valve thickness (progressive thickening) (Prox1^ΔVEC mice; Prox1^ΔVEC mice): does not ameliorate the progressive thickening
aortic valve thickness (progressive thickening) (Prox1^ΔVEC mice; Prox1^ΔVEC mice, listed as Imb): not reduced
versican expression in aortic valves (Prox1^ΔVEC mice; Prox1^ΔVEC mice): reduced the expression of versican
versican expression in aortic valves (Prox1^ΔVEC mice; Prox1^ΔVEC mice, listed as Imb): inhibited
valve defects / progression of valve disease (Prox1^ΔVEC mice; 6 months): partially rescue the valve defects; also recorded: prevents the progression of valve disease
valve defects / progression of valve disease (Prox1^ΔVEC mice; 6 months, listed as Imatinib): Attenuates Aortic Valve Degeneration
inhibition of kinase activity (PDGFRα): inhibits the activity
inhibition of kinase activity (PDGFRβ): inhibits the activity
connective tissue disorders [1]: ameliorated
inhibition of kinase activity (c-Kit): inhibits the activity
